From ChEMBL document CHEMBL1201862, “PubChem BioAssay data set” (2004)
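These data come from cells grown in 96-well plates and exposed to compound for 48 hours at five concentrations. At the GI50, growth is halved.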 Active and inactive are the calls of the source. No stated cut-off is given here; in the data, active = GI50 up to about 1.1 µM and inactive = higher. Where a SMILES comes first, the peptide text is derived from it. [ ]: non-standard residue; d: D form. Phe(4-NO2) = N[CH](Cc1ccc([N+](=O)[O-])cc1)C(=O)O

Assays:
Assay in all cases: NCI-60 cell line screen, 48 h
[1] = system: 786-0
[2] = system: ACHN
[3] = system: HT-29
[4] = system: M14
[5] = system: MDA-MB-435
[6] = system: MDA-N
[7] = system: NCI-H23
[8] = system: NCI-H460
[9] = system: NCI/ADR-RES
[10] = system: PC-3
[11] = system: SF-268
[12] = system: SK-OV-3
[13] = system: SNB-19
[14] = system: U-251
[15] = system: A549
[16] = system: UACC-257
[17] = system: EKVX
[18] = system: K562
[19] = system: HOP-92
[20] = system: SR

| Structure (SMILES) | GI50 [1] | GI50 [2] | GI50 [3] | GI50 [4] | GI50 [5] | GI50 [6] | GI50 [7] | GI50 [8] | GI50 [9] | GI50 [10] | GI50 [11] | GI50 [12] | GI50 [13] | GI50 [14] | GI50 [15] | GI50 [16] | GI50 [17] | GI50 [18] | GI50 [19] | GI50 [20] |
| --- | --- | --- | --- | --- | --- | --- | --- | --- | --- | --- | --- | --- | --- | --- | --- | --- | --- | --- | --- | --- |
| CC(=O)O[C@H]1C(=O)[C@@]2(C)[C@H]([C@H](OC(=O)c3ccccc3)[C@]3(O)C[C@H](OC(=O)[C@H](O)[C@@H](NC(=O)c4ccccc4)c4ccccc4)C(C)=C1C3(C)C)[C@]1(OC(C)=O)CO[C@@H]1C[C@@H]2O [PACLITAXEL] | 0.0337 µM (active) | 0.661 µM (active) | 0.00273 µM (active) | 0.0229 µM (active) | 0.00395 µM (active) | 0.00307 µM (active) | 0.00396 µM (active) | 0.00296 µM (active) | 3.11 µM (inactive) | 0.0182 µM (active) | 0.00658 µM (active) | 0.00881 µM (active) | 0.0121 µM (active) | 0.00384 µM (active) | – | – | – | – | – | – |
| N#Cc1c(-c2ccccc2)c(/C=N/c2ccc(Cl)cc2)c(=O)n2c1[nH]c1ccccc12 | > 100 µM (inactive) | 65.2 µM (inactive) | – | > 100 µM (inactive) | > 100 µM (inactive) | 20.4 µM (inactive) | > 100 µM (inactive) | > 100 µM (inactive) | > 100 µM (inactive) | > 100 µM (inactive) | > 100 µM (inactive) | > 100 µM (inactive) | > 100 µM (inactive) | > 100 µM (inactive) | 83.9 µM (inactive) | > 100 µM (inactive) | – | – | – | – |
| CCOC(=O)Cc1cc(=O)[nH]c(-n2[nH]c(C)c(CCO)c2=O)n1 | > 100 µM (inactive) | > 100 µM (inactive) | > 100 µM (inactive) | > 100 µM (inactive) | > 100 µM (inactive) | > 100 µM (inactive) | > 100 µM (inactive) | > 100 µM (inactive) | > 100 µM (inactive) | > 100 µM (inactive) | > 100 µM (inactive) | > 100 µM (inactive) | > 100 µM (inactive) | > 100 µM (inactive) | > 100 µM (inactive) | > 100 µM (inactive) | > 100 µM (inactive) | > 100 µM (inactive) | – | – |
| c1ccc2nn(C3CCCO3)nc2c1 (configuration not stated) | > 100 µM (inactive) | – | > 100 µM (inactive) | > 100 µM (inactive) | > 100 µM (inactive) | > 100 µM (inactive) | > 100 µM (inactive) | > 100 µM (inactive) | > 100 µM (inactive) | > 100 µM (inactive) | > 100 µM (inactive) | > 100 µM (inactive) | – | > 100 µM (inactive) | > 100 µM (inactive) | > 100 µM (inactive) | > 100 µM (inactive) | > 100 µM (inactive) | – | – |
| CN(N=O)C(=O)Nc1c[nH]c(=O)[nH]c1=O | > 100 µM (inactive) | > 100 µM (inactive) | > 100 µM (inactive) | > 100 µM (inactive) | > 100 µM (inactive) | > 100 µM (inactive) | > 100 µM (inactive) | – | > 100 µM (inactive) | > 100 µM (inactive) | – | > 100 µM (inactive) | > 100 µM (inactive) | > 100 µM (inactive) | > 100 µM (inactive) | > 100 µM (inactive) | > 100 µM (inactive) | > 100 µM (inactive) | > 100 µM (inactive) | – |
| COC(=O)CCC(NC(=O)C(CCC(=O)OC)NC(=O)C(CCC(=O)OC)NC(=O)C(CCC(=O)OC)NC(=O)C(CCC(=O)OC)NC(=O)C(Cc1ccc([N+](=O)[O-])cc1)NC(=O)C(CCC(=O)OC)NC(=O)C(CCC(=O)OC)NC(=O)C(CCC(=O)OC)NC(=O)C(CCC(=O)OC)NC(=O)C(CCC(=O)OC)NC(C)=O)C(N)=O (configuration not stated) (Ac-E(OMe)E(OMe)E(OMe)E(OMe)E(OMe)[Phe(4-NO2)]E(OMe)E(OMe)E(OMe)E(OMe)E(OMe)-NH2; configuration not given here) | > 100 µM (inactive) | > 100 µM (inactive) | > 100 µM (inactive) | 37.9 µM (inactive) | > 100 µM (inactive) | > 100 µM (inactive) | > 100 µM (inactive) | > 100 µM (inactive) | > 100 µM (inactive) | – | > 100 µM (inactive) | 99.3 µM (inactive) | > 100 µM (inactive) | > 100 µM (inactive) | > 100 µM (inactive) | > 100 µM (inactive) | > 100 µM (inactive) | – | – | > 100 µM (inactive) |
